According to ChEMBL document CHEMBL4715905, “Solution Conformations Shed Light on PROTAC Cell Permeability” (ACS Med Chem Lett, 2021):
pIC50: −log10 of the molar value. ≈ marks a conversion by molar mass, not a printed value.

What was measured:
[1] = Lipophilicity, logD of compound at pH 7.5; type: physicochemical; conditions: buffer
[2] = target: Mitogen-activated protein kinase 7 (Homo sapiens, UniProt Q13164); assay: Inhibition of recombinant human GST-tagged ERK5 (1 to 398 assessed as phosphorylated peptide substrate incubated for 60 mins by TR-FRET based biochemical assay
[3] = Solubility of compound in PBS buffer at pH 6.5; type: physicochemical

Chain of Mitogen-activated protein kinase 7 (Q13164 whole entry): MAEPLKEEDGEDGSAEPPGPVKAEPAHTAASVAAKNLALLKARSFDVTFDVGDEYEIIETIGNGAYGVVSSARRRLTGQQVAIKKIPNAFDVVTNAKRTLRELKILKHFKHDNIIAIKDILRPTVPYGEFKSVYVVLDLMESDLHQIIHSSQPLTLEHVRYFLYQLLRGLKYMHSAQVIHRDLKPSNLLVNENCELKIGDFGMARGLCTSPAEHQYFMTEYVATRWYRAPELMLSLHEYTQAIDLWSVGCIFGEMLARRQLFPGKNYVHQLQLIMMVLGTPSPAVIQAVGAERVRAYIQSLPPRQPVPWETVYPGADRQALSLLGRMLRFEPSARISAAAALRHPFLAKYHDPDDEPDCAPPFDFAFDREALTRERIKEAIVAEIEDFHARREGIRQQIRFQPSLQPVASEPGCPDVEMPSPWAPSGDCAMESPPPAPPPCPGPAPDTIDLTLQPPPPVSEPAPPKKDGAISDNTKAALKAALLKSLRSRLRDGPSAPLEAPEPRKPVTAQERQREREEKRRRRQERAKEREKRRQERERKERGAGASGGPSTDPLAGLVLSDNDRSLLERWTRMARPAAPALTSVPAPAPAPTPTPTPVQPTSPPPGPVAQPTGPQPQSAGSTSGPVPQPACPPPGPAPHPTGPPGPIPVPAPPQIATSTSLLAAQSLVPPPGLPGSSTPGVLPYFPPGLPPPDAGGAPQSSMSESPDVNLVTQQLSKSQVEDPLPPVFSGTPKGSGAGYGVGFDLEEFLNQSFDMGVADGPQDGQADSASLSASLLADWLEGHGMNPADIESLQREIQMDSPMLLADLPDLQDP

Cc1ncsc1-c1ccc(CNC(=O)[C@@H]2C[C@@H](O)CN2C(=O)[C@@H](NC(=O)COCCOCCNC(=O)COc2cnc3c(C4CCN(C(=O)c5ccc(OC(F)(F)F)cc5)CC4)ncnc3c2)C(C)(C)C)cc1
logD [1]: 2.68
pIC50 [2]: 5.91
solubility [3]: 7 µg/mL (≈ 6.77 µM)
